According to patent US20080096858A1, “Method of Stabilizing Disordered Cefovecin Sodium Salt” (UNIVERSITY OF CONNECTICUT, priority 2004, published 2008):

Key:
[1] = Storage stability at 40° C. of cefovecin sodium salt annealed at 75° C., monitored by RP-HPLC (Example 1); settings: for relative rate constant k/k0 / degradation rate constant k: storage at 40° C.; for degradation rate constant k: zero-order model, SD in ( )
Description: Cefovecin sodium salt was dissolved in WFI at a concentration of 200 mg cefovecin sodium salt/ml. This solution was filtered using 0.22μ sterilized filters. 4.25 ml of this solution was volumetrically filled in the laminar flow hood into a 20-ml Flint Type I Tubular Treated Vials. 20 mm Lyophile D777-1, B2TR FluoroTec Single Vent Stoppers were partially inserted in the vials. The vials were lyophilized using Vertis freeze dryer (Gardiner, N.Y.) using the following cycle: frozen at −40° C. followed by vacuum drying at the shelf temperature of −18° C. for approximately 42 hours, and 60 millitore vacuum; secondary dried at a temperature of 40° C. for approximately 12 hours and 60 millitore vacuum. The lyophilizer chamber was back flushed with nitrogen and the vials were capped and sealed with aluminum shells.
Amorphous lyophilized cefovecin sodium salt was annealed in sealed vials at 75° C. for 20 and 60 min. The sealed vials with untreated cefovecin sodium salt (control), and vials with annealed cefovecin sodium salt were stored at 40° C. at ambient humidity for 6 and 12 weeks.
(§1) Reverse Phase High Performance Liquid Chromatography (RP-HPLC) was used to monitor degradation of cefovecin sodium salt. HPLC was carried out with a Waters Alliance (Milford, Mass.) system with a UV detector set at 256 nm and a Kromasil C4 column 4.6×250 mm, 5 μm, 100 angstrom pore size (Waters, Milford, Mass.). Column temperature was 30±2° C. and the samples were maintained in the auto sampler at 5±3° C. and the flow rate was 1 mL/min. Gradient method was used with mobile phase A consisting of (9:1) 0.025M sodium phosphate buffer solution, pH 6.5: acetonitrile in HPLC grade water, and mobile phase B consisting of (4:6) 0.025M sodium phosphate buffer solution, pH 6.5: acetonitrile in HPLC grade water.
(§2) The lyophilized cake was dissolved in WFI, and the solution was injected into the HPLC column. Contents of cefovecin sodium salt and a main degradant with relative retention time of approximately 1.6 were calculated as Ac/ΣAi, where Ac is the peak area of either cefovecin sodium salt or the degradant, and ΣAi is a total area of all chromatographic peaks. […] Stability data obtained for two annealed samples and the control sample are graphically illustrated in FIG. 1.
In addition, relative rate constants, k/k0 (where k0 is the rate constant of the control) were calculated in relation to control. The k/k0 are plotted in FIG. 2 as a function of annealing time at 75° C.

[2] = Storage stability at 40° C. for 6 months of cefovecin sodium salt annealed at 60° C., monitored by RP-HPLC (Example 2)
Description: as §1, §2
Amorphous lyophilized cefovecin sodium salt was annealed in sealed vials at 60° C. for 300 min in a contract lab, UCONN, Storrs, Conn. Untreated samples (control), and annealed samples were placed on stability at 40° C. for 6 months. Reverse Phase High Performance Liquid Chromatography was used to monitor degradation as described in Example 1.

[3] = HPLC purity of thermally treated freeze-dried cefovecin sodium salt (Example 3, Table 3)
Description: as §1, §2
A freeze-dried formulation that contains cefovecin sodium salt was prepared as follows. Cefovecin sodium salt was dissolved in citrate buffer at pH 6.7. […] The solution contained 200 mg/ml of cefovecin sodium salt, 50 mM citrate buffer, 4.5 mg/ml methylparaben, and 0.5 mg/ml propylparaben. The solution was filled in 20 ml glass vials, 4.25 ml/vial. The vials were partially stoppered with single-vent D777-1 and loaded into a freeze-drier (Hull 450 FXS800S, Warminster, Pa.). The solution was frozen at −40° C. followed by primary drying at the shelf temperature of −10° C. and approximately 200 millitore vacuum; after the product temperature approached −12° C., secondary drying was performed at shelf temperature 40° C. for approximately 12 hours and 200 millitore vacuum. Lyophilized cefovecin sodium salt was prepared in a contract facility, SmithKline Beecham Corporation, Conshocken, Pa. […] The lyophilized samples were annealed in sealed vials at 160° C. for 120 min and 170° C./45 min. The untreated samples (control), and annealed samples were tested by HPLC; HPLC conditions are described in Example 1.

[4] = Physical form (crystallization) during thermal treatment; type: physicochemical; settings: thermal treatment according to the invention; material remained amorphous
[5] = annealed at 60° C.; stability study at 25 and 40° C.; cited from earlier work
[6] = after storage 12 weeks at 40° C., ambient humidity, annealed at 75° C.
[7] = 0 min annealing at 75° C. (control)
[8] = after storage 6 months at 40° C., annealed at 60° C.

Structure (SMILES): CO/N=C(\C(=O)N[C@@H]1C(=O)N2C(C(=O)[O-])=C([C@@H]3CCCO3)CS[C@H]12)c1csc(N)n1.[Na+] [cefovecin sodium salt]
- dimer level of annealed samples compared with control [1, 6]: lower
- overall purity of annealed samples compared with control [1, 6]: higher
- degradation caused by annealing (initial time points) ([1]; annealing 20 and 60 min at 75° C., lower purity, higher dimer): some degradation
- effect of annealing on stability ([1]; annealing at 75° C.): increased the stability
- relative rate constant k/k0 [1, 7]: 1.00
- degradation rate constant k [1, 7]: −0.12 (0.01) %/week
- relative rate constant k/k0 ([1]; annealed 20 min at 75° C.): 0.82
- degradation rate constant k ([1]; annealed 20 min at 75° C.): −0.095 (0.006) %/week
- relative rate constant k/k0 ([1]; annealed 60 min at 75° C.): 0.71
- degradation rate constant k ([1]; annealed 60 min at 75° C.): −0.082 (0.005) %/week
- dimer level of annealed sample compared with control [2, 8]: lower
- purity of annealed sample compared with control [2, 8]: higher
- purity (cefovecin sodium salt) ([2]; annealed 60° C. 300 min, 0 months at 40° C.): 98.11 area %
- purity (cefovecin sodium salt) ([2]; annealed 60° C. 300 min, 6 months at 40° C.): 96.49 area %
- effect of annealing on stability ([2]; annealing at 60° C.): increased the stability
- purity (cefovecin sodium salt) ([2]; control (not annealed), 0 months at 40° C.): 98.35 area %
- purity (cefovecin sodium salt) ([2]; control (not annealed), 6 months at 40° C.): 96.35 area %
- Purity ([3]; after annealing 60° C./300 min (Example 2)): 98.1 area %
- Purity ([3]; after annealing 75° C./20 min (Example 1)): 97.5 area %
- Purity ([3]; after annealing 75° C./60 min (Example 1)): 97.5 area %
- Purity ([3]; after annealing 160° C./120 minutes, freeze-dried formulation with citrate buffer, methylparaben, propylparaben (Example 3)): 69.8 area %
- Purity ([3]; after annealing 170° C./45 minutes, freeze-dried formulation with citrate buffer, methylparaben, propylparaben (Example 3)): 70.3 area %
- degradation caused by annealing ([3]; annealing at 160° C. and 170° C.): unacceptable levels of degradation
- degradation caused by thermal treatment compared with examples 1 and 2 ([3]; treatment at both 160° C. and 170° C.): significant degradation
- crystallization during thermal treatment [4]: did not occur

Structure (SMILES): CO[C@@]1(NC(=O)C(C(=O)[O-])c2ccc(O)cc2)C(=O)N2C(C(=O)[O-])=C(CSc3nnnn3C)COC21.[Na+].[Na+] (some centres unmarked) [moxalactam, moxalactam (di-sodium salt)]
- rate of decarboxylation of annealed sample compared with control [5]: lower
